Where a name gives a salt, the structure may show the parent alone.
Assays:
IFN-α = test: Induction of interferon-α using fresh human whole blood (WB); assay type: cell-based; conditions: three donors, overnight incubation, response as % of 2 μM resiquimod control, read-out: mean pEC50 for IFN-α (converted)
Procedure: (§1) Assay for the Induction of Interferon-[…] and TNF-[…] Using Fresh Human Whole Blood (WB)
(§2) Compounds were prepared at 100× required concentration in DMSO in flat-bottom microtitre plates at a volume of 1.5 μL. Columns 1-10 contained a 1 in 4 serial dilution of the test compound. Included on each plate was a serial dilution of the TLR7/8 agonist resiquimod as a standard and Column 11 contained 1.5 μl of 200 μM resiquimod (giving a 2 μM final concentration, used to define the approximate maximal response to resiquimod). Each compound was assayed in duplicate for each donor.
(§3) Blood samples from three human donors were collected into sodium heparin (10 U/ml). 150 μl of whole Blood was dispensed into Col 1 to 11 of assay plates containing 1.5 μl of test compound or standard in DMSO. Plates were placed in an incubator overnight (37° C., 95% air, 5% CO2). Following the overnight incubation, plates were removed from the incubator & mixed on an orbital shaker for approximately 1 minute. 100 μl of 0.9% saline was added to each well and the plates mixed again on an orbital shaker. Plates were then centrifuged (2500 rpm, 10 mins), after which a sample of plasma was removed using a Biomek FX and assayed for both IFN-α and TNF-α using the MSD (Mesoscale Discovery) electrochemiluminescence assay platform. The IFN-α assay was carried out similarly to that described above. The TNF-α assay was carried out as per kit instructions (Cat No K111BHB).
(§4) Cytokine released was expressed as a percentage of the 2 μM resiquimod control (column 11). This percentage was plotted against compound concentration and the pEC50 for the response determined by non-linear least squares curve fitting. For the IFN-α responses, generally a 4 parameter logistic model was selected. For the TNF-α responses where a clear maximum response was obtained (i.e. a well defined plateau in the response was observed) then a 4 parameter model was generally used. If the upper asymptote of the curve wasn't well defined then the curve fitting was generally constrained to a maximal response of 100% (i.e. to the response to 2 μM resiquimod) or to the response of the highest concentration tested if this was greater than the resiquimod response. Some curves were bell shaped for one or both cytokines and the cytokine data on the down slope of the bell shaped response (i.e. concentrations above those giving the maximal response) were generally excluded from the fit, usually with the exception of the concentration immediately above the peak response. Curve fitting thus concentrated on the up slope of the dose response curve.

TNF-α = test: Induction of TNF-α using fresh human whole blood (WB); assay type: cell-based; conditions: three donors, overnight incubation, response as % of 2 μM resiquimod control, read-out: mean pEC50 for TNF-α (converted)
Procedure: as §1, §2, §3, §4

Row | EC50 (IFN-α) [µM] | EC50 (TNF-α) [µM] | Structure (SMILES)
1 | ≤ 5.01 | ≥ 5.01 | CCCCc1nc(N)c2[nH]c(C)c(CCCCCN3CC(F)C3)c2n1 [Example 42, 2-Butyl-7-(5-(3-fluoroazetidin-1-yl)pentyl)-6-methyl-5H-pyrrolo[3,2-d]pyrimidin-4-amine]
2 | ≤ 5.01 | ≥ 5.01 | CCCCc1nc(N)c2[nH]cc(CCCCCN3CC(C)C3)c2n1 [Example 36, 2-Butyl-7-(5-(3-methylazetidin-1-yl)pentyl)-5H-pyrrolo[3,2-d]pyrimidin-4-amine]
3 | ≤ 5.01 | ≥ 5.01 | CCCCc1nc(N)c2[nH]cc(CCCCCN3CCC[C@H]3C)c2n1 [Example 35, (R)-2-Butyl-7-(5-(2-methylpyrrolidin-1-yl)pentyl)-5H-pyrrolo[3,2-d]pyrimidin-4-amine]
4 | ≤ 5.01 | ≥ 5.01 | COCCc1nc(N)c2[nH]cc(CCCCCN3CCC(F)CC3)c2n1 [Example 22, 7-(5-(4-Fluoropiperidin-1-yl)pentyl)-2-(2-methoxyethyl)-5H-pyrrolo[3,2-d]pyrimidin-4-amine]
5 | ≤ 5.01 | ≥ 5.01 | CCCCc1nc(N)c2[nH]c(C)c(CCCCCN3CC[C@H](F)C3)c2n1 [Example 40, (S)-2-Butyl-7-(5-(3-fluoropyrrolidin-1-yl)pentyl)-6-methyl-5H-pyrrolo[3,2-d]pyrimidin-4-amine]
6 | ≤ 5.01 | ≥ 5.01 | CCCCc1nc(N)c2[nH]cc(CCCCCCN3CC[C@H](F)C3)c2n1 [Example 33, (S)-2-Butyl-7-(6-(3-fluoropyrrolidin-1-yl)hexyl)-5H-pyrrolo[3,2-d]pyrimidin-4-amine]
7 | ≤ 5.01 | ≥ 5.01 | CCCCc1nc(N)c2[nH]cc(CCCCCN3CC[C@H](O)C3)c2n1 [Example 28, (S)-1-(5-(4-Amino-2-butyl-5H-pyrrolo[3,2-d]pyrimidin-7-yl)pentyl)pyrrolidin-3-ol]
8 | ≤ 5.01 | ≥ 5.01 | CCCCc1nc(N)c2[nH]cc(CCCCCN3CC(O)C3)c2n1 [Example 29, 1-(5-(4-Amino-2-butyl-5H-pyrrolo[3,2-d]pyrimidin-7-yl)pentyl)azetidin-3-ol formate]
9 | ≤ 5.01 | ≥ 5.01 | CCCCc1nc(N)c2[nH]cc(CCCCCN3CCC[C@@H]3C)c2n1 [Example 34, (S)-2-Butyl-7-(5-(2-methylpyrrolidin-1-yl)pentyl)-5H-pyrrolo[3,2-d]pyrimidin-4-amine]
10 | ≤ 5.01 | ≥ 5.01 | COCCc1nc(N)c2[nH]cc(CCCCCN3CCCC3)c2n1 [Example 43, 2-(2-Methoxyethyl)-7-(5-(pyrrolidin-1-yl)pentyl)-5H-pyrrolo[3,2-d]pyrimidin-4-amine]
11 | ≤ 5.01 | ≥ 5.01 | CCCCc1nc(N)c2[nH]c(C)c(CCCCCN3CCC(F)CC3)c2n1 [Example 39, 2-Butyl-7-(5-(4-fluoropiperidin-1-yl)pentyl)-6-methyl-5H-pyrrolo[3,2-d]pyrimidin-4-amine]
12 | ≤ 5.01 | ≥ 5.01 | CCCCc1nc(N)c2[nH]cc(CCCCCCN3CC[C@@H](F)C3)c2n1 [Example 32, (R)-2-Butyl-7-(6-(3-fluoropyrrolidin-1-yl)hexyl)-5H-pyrrolo[3,2-d]pyrimidin-4-amine]
13 | ≤ 5.01 | ≥ 5.01 | COCCc1nc(N)c2[nH]cc(CCCCCN3CC[C@@H](F)C3)c2n1 [Example 26, (R)-7-(5-(3-Fluoropyrrolidin-1-yl)pentyl)-2-(2-methoxyethyl)-5H-pyrrolo[3,2-d]pyrimidin-4-amine formate]
14 | ≤ 5.01 | ≥ 5.01 | CCCCc1nc(N)c2[nH]cc(CCCCCN3CCC(O)CC3)c2n1 [Example 23, 1-(5-(4-Amino-2-butyl-5H-pyrrolo[3,2-d]pyrimidin-7-yl)pentyl)piperidin-4-ol]

Second part, the compound before the results:

Row | Structure (SMILES) | EC50 (IFN-α) [µM] | EC50 (TNF-α) [µM]
15 | CCCCc1nc(N)c2[nH]c(C)c(CCCCN3CCCCC3)c2n1 [Example 8, 2-Butyl-6-methyl-7-(4-(piperidin-1-yl)butyl)-5H-pyrrolo[3,2-d]pyrimidin-4-amine] | ≤ 5.01 | ≥ 5.01
16 | CCCCc1nc(N)c2[nH]cc(CCCCCN3CCCC3)c2n1 [Example 9, 2-Butyl-7-(5-(pyrrolidin-1-yl)pentyl)-5H-pyrrolo[3,2-d]pyrimidin-4-amine formate] | ≤ 5.01 | ≥ 5.01
17 | CCCCc1nc(N)c2[nH]cc(CCCCCN3CCCCCC3)c2n1 [Example 12, 7-(5-(Azepan-1-yl)pentyl)-2-butyl-5H-pyrrolo[3,2-d]pyrimidin-4-amine] | ≤ 5.01 | ≥ 5.01
18 | CCCCc1nc(N)c2[nH]cc(CCCCCCN3CCCC3)c2n1 [Example 10, 2-Butyl-7-(6-(pyrrolidin-1-yl)hexyl)-5H-pyrrolo[3,2-d]pyrimidin-4-amine] | ≤ 5.01 | ≥ 5.01
19 | CCCCc1nc(N)c2[nH]c(C)c(CCCCCCN3CCCCC3)c2n1 [Example 6, 2-Butyl-6-methyl-7-(6-(piperidin-1-yl)hexyl)-5H-pyrrolo[3,2-d]pyrimidin-4-amine] | ≤ 5.01 | ≥ 5.01
20 | CCCCc1nc(N)c2[nH]c(C)c(CCCCCN3CCCC3)c2n1 [Example 16, 2-Butyl-6-methyl-7-(5-(pyrrolidin-1-yl)pentyl)-5H-pyrrolo[3,2-d]pyrimidin-4-amine] | ≤ 5.01 | ≥ 5.01
21 | CCCCc1nc(N)c2[nH]cc(CCCCCN3CCC3)c2n1 [Example 17, 7-(5-(Azetidin-1-yl)pentyl)-2-butyl-5H-pyrrolo[3,2-d]pyrimidin-4-amine] | ≤ 5.01 | ≥ 5.01
22 | CCCCc1nc(N)c2[nH]cc(CCCCCN3CCCCC3)c2n1 [Example 2, 2-Butyl-7-(5-(piperidin-1-yl)pentyl)-5H-pyrrolo[3,2-d]pyrimidin-4-amine] | ≤ 5.01 | ≥ 5.01
23 | CCCCCc1nc(N)c2[nH]cc(CCCCCCN3CCCCC3)c2n1 [Example 11, 2-Pentyl-7-(6-(piperidin-1-yl)hexyl)-5H-pyrrolo[3,2-d]pyrimidin-4-amine] | ≤ 5.01 | ≥ 5.01
24 | CCCCc1nc(N)c2[nH]cc(CCCCCN3CCC(F)(F)CC3)c2n1 [Example 20, 2-Butyl-7-(5-(4,4-difluoropiperidin-1-yl)pentyl)-5H-pyrrolo[3,2-d]pyrimidin-4-amine] | ≤ 5.01 | ≥ 5.01
25 | CCOCc1nc(N)c2[nH]cc(CCCCCCN3CCCCC3)c2n1 [Example 4, 2-(Ethoxymethyl)-7-(6-(piperidin-1-yl)hexyl)-5H-pyrrolo[3,2-d]pyrimidin-4-amine] | ≤ 5.01 | ≥ 5.01
26 | CCCCc1nc(N)c2[nH]cc(CCCCCCN3CCCCC3)c2n1 [Example 1, 2-Butyl-7-(6-(piperidin-1-yl)hexyl)-5H-pyrrolo[3,2-d]pyrimidin-4-amine formate] | ≤ 5.01 | ≥ 5.01
27 | CCCCc1nc(N)c2[nH]c(C)c(CCCCCN3CCCCC3)c2n1 [Example 7, 2-Butyl-6-methyl-7-(5-(piperidin-1-yl)pentyl)-5H-pyrrolo[3,2-d]pyrimidin-4-amine] | ≤ 5.01 | ≥ 5.01
28 | CCCCc1nc(N)c2[nH]c(C)c(CCCCN3CCCC3)c2n1 [Example 19, 2-Butyl-6-methyl-7-(4-(pyrrolidin-1-yl)butyl)-5H-pyrrolo[3,2-d]pyrimidin-4-amine] | ≤ 5.01 | ≥ 5.01
29 | CCCCc1nc(N)c2[nH]cc(CCCCN3CCCCC3)c2n1 [Example 3, 2-Butyl-7-(4-(piperidin-1-yl)butyl)-5H-pyrrolo[3,2-d]pyrimidin-4-amine] | ≤ 5.01 | ≥ 5.01

— patent US9907847B2, “Pyrrolopyrimidines as therapeutic agents for the treatment of diseases” (GlaxoSmithKline LLC, priority 2012, dated 2018)
